What is called inhibition is the relative decrease from the control value, in per cent.

One experiment addresses activated human C1 (Homo sapiens, UniProt P09871). Briefly: Test Code 026 (C1 inhibitor). Format: biochemical. The note with it: serial dilution assay, twofold dilutions; higher well number indicates higher activity.
The test system of another experiment is shunt pathway. Briefly: Test Code 036 (C-Shunt inhibitor), lysis of human erythrocytes via cobra venom factor activated shunt pathway. Format: biochemical. Set-up: key: N = Negative. The following applies: serial dilution assay, twofold dilutions.
For experiment [1], the system named is late components of human complement (C3-C9). Briefly: Test Code 035 (C3-C9 inhibitor), lysis of EAC 142. Format: biochemical. The arrangement: key: N = Negative. The note with it: serial dilution assay, twofold dilutions.
The subject of experiment [2] is complement activity in serum. The experiment can be described thus: Guinea Pig Intraperitoneal Test (GPIP). Format: in vivo. The following applies: Cavia porcellus, ip, 200 mg./kg. i.p.

Structures are written as SMILES. Where a name gives a salt, the structure may show the parent alone. Read-outs that look alike come from different tables or passages of the source.

Regarding `O=S(=O)(O)c1cc(NS(=O)(=O)c2cc(S(=O)(=O)Nc3cc(S(=O)(=O)O)cc(S(=O)(=O)O)c3)cc(S(=O)(=O)Nc3cc(S(=O)(=O)O)cc(S(=O)(=O)O)c3)c2)cc(S(=O)(=O)O)c1` [5,5',5"-[s-Phenenyltris(sulfonylimino)]tri-m-benzenedisulfonic acid, hexasodium salt], at activated human C1, the “Cl 026 Wells” value is “+8 Wells”. For the same compound, the “Shunt Inhibition 036 Wells” value in the experiment on shunt pathway is “N”. In experiment [1], the “C-Late 035 Wells” value is “N”. The inhibition at 200 mg/kg is -75% in experiment [2] (0.5 h, 30 min after injection, read-out: In Vivo Activity (Guinea pig) % Inhibition Intraperitoneal, 30 min); -75% in experiment [2] (1 h, 60 min after injection, read-out: In Vivo Activity (Guinea pig) % Inhibition Intraperitoneal, 60 min); -81% in experiment [2] (2 h, 120 min after injection, read-out: In Vivo Activity (Guinea pig) % Inhibition Intraperitoneal, 120 min).

Values taken from patent publication US4318864A, “Process for making s-phenenyltris(sulfonylimino)tri-benzene mono- and di-sulfonic acids and salts” (American Cyanamid Company, priority 1980, dated 1982).
